Assay results: patent US11840686B2, “Modulation of prekallikrein (PKK) expression” (Ionis Pharmaceuticals, Inc., priority 2013, dated 2023)
Strand notation (5' to 3'): a small letter for the sugar, then the base; units joined by * are phosphorothioate-linked, units joined directly phosphodiester-linked; [ ] holds rarer units or linkages, { } end groups; capitals alone tell only the bases. e = 2'-O-(2-methoxyethyl) (MOE); k = constrained ethyl (cEt); [5mC] = 5-methylcytosine; d = 2'-deoxy (DNA)

System: human PKK mRNA
Assay: Antisense inhibition of human PKK mRNA in HepaRG cells, 1,000 nM, MOE/deoxy/cEt oligonucleotides (Example 3)
Type: cell-based
Outline: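 Readout is percent PKK mRNA reduction against untreated controls, by real-time PCR (RTS3454) adjusted for total RNA via RIBOGREEN. Oligonucleotides, phosphorothioate gapmers of 16 nucleosides with cEt, MOE and deoxy sugars, were delivered at 1,000 nM by electroporation to 20,000 HepaRG cells/well for roughly 24 h.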

[1] = Table 20, HepaRG cells, electroporation with 1,000 nM antisense oligonucleotide, approximately 24 hours, PKK mRNA by RT-PCR (RTS3454), relative to untreated control cells
[2] = Table 22 experiment, HepaRG cells, electroporation with 1,000 nM antisense oligonucleotide, approx. 24 hours, PKK mRNA by RT-PCR (RTS3454), relative to untreated control cells
[3] = Table 28, HepaRG cells, 1,000 nM antisense oligonucleotide, human PKK mRNA
[4] = HepaRG cells, 1,000 nM antisense oligonucleotide, Table 29
[5] = PKK mRNA, HepaRG cells, 1,000 nM antisense oligonucleotide, Table 31
[6] = Table 30, human PKK mRNA, HepaRG cells, 1,000 nM antisense oligonucleotide
[7] = Table 19, HepaRG cells, electroporation with 1,000 nM antisense oligonucleotide, approximately 24 hours, PKK mRNA by RT-PCR (RTS3454), relative to untreated control cells
[8] = HepaRG cells, electroporation with 1,000 nM antisense oligonucleotide, approximately 24 hours, primer probe set RTS3454, relative to untreated control cells, experiment of Table 24
[9] = Table 21 experiment, HepaRG cells, electroporation with 1,000 nM antisense oligonucleotide, approx. 24 hours, PKK mRNA by RT-PCR (RTS3454), relative to untreated control cells
[10] = HepaRG cells, electroporation with 1,000 nM antisense oligonucleotide, approx. 24 hours, PKK mRNA by RT-PCR (RTS3454), relative to untreated control cells, Table 25 experiment
[11] = HepaRG cells, electroporation with 1,000 nM antisense oligonucleotide, approximately 24 hours, primer probe set RTS3454, relative to untreated control cells, experiment of Table 23
[12] = Table 27, HepaRG cells, 1,000 nM antisense oligonucleotide, human PKK mRNA

547875 (antisense e[5mC]*eA*k[5mC]*dT*dG*d[5mC]*dT*dA*dA*d[5mC]*d[5mC]*dT*dT*kA*kG*eA) [compound 547875]
% inhibition [1]: 73% | % inhibition [2]: 57%

548505 (antisense eG*eG*kA*d[5mC]*dA*dA*dT*dG*d[5mC]*d[5mC]*dT*dA*dT*kG*k[5mC]*eT) [compound 548505]
% inhibition [3]: 21%

548529 (antisense eG*e[5mC]*kG*dA*dT*dT*d[5mC]*d[5mC]*dT*dT*dG*d[5mC]*d[5mC]*kT*k[5mC]*eT) [compound 548529]
% inhibition [3]: 56%

548603 (eG*eA*kG*dA*dT*dT*dG*dG*dT*dG*dG*dT*dG*kG*kG*eT; antisense) [compound 548603]
% inhibition [4]: 35%

548618 (antisense eG*eT*kT*dG*dG*dT*dG*dG*d[5mC]*dG*dG*dG*dA*kT*k[5mC]*eG) [compound 548618]
% inhibition [5]: 18%

548680 (antisense eG*e[5mC]*k[5mC]*d[5mC]*d[5mC]*dT*d[5mC]*dT*dT*dA*dA*dA*dT*kA*kG*e[5mC]) [compound 548680]
% inhibition [5]: 9%

548420 (antisense eT*e[5mC]*k[5mC]*dT*dA*dT*dA*dT*d[5mC]*dA*d[5mC]*dT*dG*kT*k[5mC]*e[5mC]) [compound 548420]
% inhibition [6]: 58%

548085 (antisense eT*eA*kA*dG*dG*dG*dA*d[5mC]*d[5mC]*dA*d[5mC]*d[5mC]*dT*kG*kA*eA) [compound 548085]
% inhibition [7]: 8%

548585 (eT*eA*kG*dG*d[5mC]*dA*d[5mC]*dA*dG*dA*d[5mC]*dA*dA*k[5mC]*k[5mC]*eT; antisense) [compound 548585]
% inhibition [4]: 33%

548137 (eA*eG*kG*d[5mC]*dT*d[5mC]*dA*dG*dA*dA*dT*dT*dT*kG*kA*e[5mC]; antisense) [compound 548137]
% inhibition [7]: 62%

548384 (e[5mC]*eT*k[5mC]*dA*d[5mC]*d[5mC]*dG*dG*dT*dA*d[5mC]*dT*d[5mC]*kT*kG*e[5mC]; antisense) [compound 548384]
% inhibition [6]: 49%

548044 (eT*eG*kG*dT*dG*dA*dA*dT*dA*dA*dT*dA*dA*kT*k[5mC]*eT; antisense) [compound 548044]
% inhibition [8]: 12%

548131 (eA*eA*kT*dT*dT*dG*dA*d[5mC]*dT*dT*dG*dA*dA*k[5mC]*kT*e[5mC]; antisense) [compound 548131]
% inhibition [7]: 45%

547803 (eT*eG*kT*dA*d[5mC]*dA*dT*dG*dG*dA*dA*dG*d[5mC]*kT*kA*e[5mC]; antisense) [compound 547803]
% inhibition [9]: 0%

548200 (e[5mC]*eT*kA*dA*dT*dG*dT*dG*dG*d[5mC]*dA*d[5mC]*dT*kG*k[5mC]*eA; antisense) [compound 548200]
% inhibition [10]: 19%

548595 (eG*eG*kA*dT*dG*dA*dG*dA*dT*dG*d[5mC]*dA*dT*k[5mC]*k[5mC]*eA; antisense) [compound 548595]
% inhibition [4]: 8%

547961 (eT*eT*kG*d[5mC]*dA*dG*dG*dT*dT*dA*dA*dA*dA*kG*kG*e[5mC]; antisense) [compound 547961]
% inhibition [11]: 5%

548664 (antisense eG*e[5mC]*kG*dG*dG*dT*dG*dG*dT*d[5mC]*dT*dT*dG*k[5mC]*kA*e[5mC]) [compound 548664]
% inhibition [5]: 38%

548607 (eT*e[5mC]*kG*dG*dT*dG*dG*dT*dG*dG*dG*dA*dT*kT*kG*eG; antisense) [compound 548607]
% inhibition [4]: 34%

548050 (eA*eG*kG*d[5mC]*dG*dA*dT*dA*dT*d[5mC]*dA*dT*dG*kA*kT*eT; antisense) [compound 548050]
% inhibition [8]: 37%

548623 (antisense eG*e[5mC]*kT*dG*dT*d[5mC]*dA*d[5mC]*dT*dT*dA*dA*dG*k[5mC]*k[5mC]*eA) [compound 548623]
% inhibition [5]: 16%

547905 (eT*eA*k[5mC]*dT*d[5mC]*dA*dG*d[5mC]*dA*d[5mC]*d[5mC]*dT*dT*kT*kA*eT; antisense) [compound 547905]
% inhibition [1]: 20% | % inhibition [2]: 59%

548294 (eG*eT*kG*dT*dG*d[5mC]*dA*d[5mC]*dT*dT*dT*d[5mC]*dT*kG*kG*eT; antisense) [compound 548294]
% inhibition (HepaRG cells, electroporation with 1,000 nM antisense oligonucleotide, approx. 24 hours, PKK mRNA by RT-PCR (RTS3454), relative to untreated control cells, Table 26 experiment): 33%

548447 (antisense e[5mC]*eA*k[5mC]*dT*dG*dT*d[5mC]*d[5mC]*dT*dA*dT*dG*dT*k[5mC]*kA*e[5mC]) [compound 548447]
% inhibition [6]: 59%

548413 (antisense e[5mC]*eT*kA*dA*d[5mC]*dA*dG*dT*dA*dT*d[5mC]*dA*d[5mC]*kT*kG*eT) [compound 548413]
% inhibition [6]: 55%

548682 (antisense eG*eT*kA*dT*d[5mC]*d[5mC]*d[5mC]*d[5mC]*dT*dT*dT*dT*d[5mC]*kT*kA*eT) [compound 548682]
% inhibition [5]: 0%

547960 (eT*eG*k[5mC]*dA*dG*dG*dT*dT*dA*dA*dA*dA*dG*kG*k[5mC]*eT; antisense) [compound 547960]
% inhibition [11]: 40%

547989 (antisense e[5mC]*eT*kG*dA*d[5mC]*dA*dG*d[5mC]*dG*dA*dA*dT*d[5mC]*kA*kT*e[5mC]) [compound 547989]
% inhibition [11]: 66%

548059 (eT*eA*kG*dG*d[5mC]*dA*dT*dA*dT*dT*dG*dG*dT*kT*kT*eT; antisense) [compound 548059]
% inhibition [8]: 50%

547945 (eA*eA*k[5mC]*dT*dT*dG*dG*dT*dG*dT*dG*d[5mC]*d[5mC]*kA*k[5mC]*eT; antisense) [compound 547945]
% inhibition [11]: 62%

547858 (antisense e[5mC]*eT*k[5mC]*dT*d[5mC]*dA*dT*dA*dT*d[5mC]*dA*dA*d[5mC]*kT*k[5mC]*e[5mC]) [compound 547858]
% inhibition [1]: 82% | % inhibition [2]: 76%

548514 (antisense eT*e[5mC]*kG*dA*dG*dG*dA*d[5mC]*dA*dG*d[5mC]*d[5mC]*d[5mC]*k[5mC]*k[5mC]*eA) [compound 548514]
% inhibition [3]: 40%

547886 (e[5mC]*eG*kG*dT*dA*d[5mC]*dT*d[5mC]*dT*dG*d[5mC]*d[5mC]*dT*kT*kG*eT; antisense) [compound 547886]
% inhibition [1]: 97% | % inhibition [2]: 89%

548035 (e[5mC]*eA*k[5mC]*dT*dA*dT*dA*dG*dA*dT*dG*d[5mC]*dG*k[5mC]*k[5mC]*eA; antisense) [compound 548035]
% inhibition [8]: 44%

548104 (antisense eA*eT*kG*dT*dA*d[5mC]*dT*d[5mC]*dA*dG*d[5mC]*dG*dA*k[5mC]*kT*eT) [compound 548104]
% inhibition [7]: 59%

547920 (eG*eA*kG*dA*dA*d[5mC]*d[5mC]*d[5mC]*dT*dG*dG*d[5mC]*dA*kA*k[5mC]*eA; antisense) [compound 547920]
% inhibition [11]: 52%

548148 (eG*e[5mC]*kA*dG*d[5mC]*dT*d[5mC]*dT*dG*dA*dG*dT*dG*k[5mC]*kA*e[5mC]; antisense) [compound 548148]
% inhibition [7]: 66%

548334 (antisense eG*e[5mC]*kT*d[5mC]*dA*d[5mC]*dT*dA*dT*dA*dG*dG*d[5mC]*k[5mC]*k[5mC]*e[5mC]) [compound 548334]
% inhibition [12]: 69%

548366 (antisense eA*eG*k[5mC]*dA*dA*dG*d[5mC]*dT*dA*dA*dG*dT*dG*kA*kG*eT) [compound 548366]
% inhibition [12]: 5%

548065 (eT*eT*kG*dG*dT*dA*dT*dA*dA*dA*dT*dT*dG*kT*kG*e[5mC]; antisense) [compound 548065]
% inhibition [8]: 22%

548506 (antisense eG*eA*kA*dG*d[5mC]*d[5mC]*dA*dT*dT*d[5mC]*dA*d[5mC]*dT*kG*k[5mC]*eA) [compound 548506]
% inhibition [3]: 32%

548073 (e[5mC]*eT*kT*dT*d[5mC]*dT*d[5mC]*d[5mC]*dT*dT*d[5mC]*dG*dA*kG*kA*eA; antisense) [compound 548073]
% inhibition [8]: 24%

548204 (eT*e[5mC]*kT*dG*dA*d[5mC]*dT*dA*dG*dT*dG*dA*dA*kT*kG*eG; antisense) [compound 548204]
% inhibition [10]: 25%

548398 (eA*eT*kA*dG*dG*d[5mC]*dA*dA*dT*dT*dG*dT*dT*k[5mC]*k[5mC]*eT; antisense) [compound 548398]
% inhibition [6]: 55%

547795 (antisense eA*e[5mC]*k[5mC]*dT*d[5mC]*dT*dG*dA*dA*dG*dA*dA*dG*kG*k[5mC]*eG) [compound 547795]
% inhibition [9]: 66%

547967 (antisense eG*eG*k[5mC]*dA*dG*dG*dG*dT*dT*d[5mC]*dA*dG*dG*kT*kA*eA) [compound 547967]
% inhibition [11]: 25%

548507 (antisense eA*eA*kA*d[5mC]*dT*d[5mC]*d[5mC]*dT*d[5mC]*dT*d[5mC]*dA*dA*kG*kG*e[5mC]) [compound 548507]
% inhibition [3]: 53%
